Assay results as given in patent US20030171329A1, “Stable compositions comprising tezacitabine” (priority 2002, published 2003).

Assay: Effects of pH and storage temperature on stability of FMdC solutions (Example 1, HPLC)
Assay type: physicochemical
Details: for FMdC content: 1 mg/mL
Experimental: In this example the effects of pH and storage temperature on the stability of tezacitabine (FMdC) solutions was evaluated. FMdC solutions were made up at 1 mg/mL in aqueous sodium phosphate buffers at pH 1, 3, 5, 7 and 9, then filled in sealed glass ampoules and placed at 5°, 25°, and 45° C. FMdC content was assessed at various times using an HPLC method. The column was a PACK ODS column (YMC, Inc, Wilmington, Del.) with a mobile phase of 55/40/5 (v/v/v) 0.086M NaH2PO4 (pH 7)/0.05M 1-pentanesulfonic acid sodium salt/acetonitrile. Detection was by UV at 268 nm. Flow rate was 1.5 mL/min and injection volume was 10 μL.

Nc1ccn([C@@H]2O[C@H](CO)[C@@H](O)/C2=C\F)c(=O)n1 [FMdC, (E)-2′-deoxy-2′-(fluoromethylene)cytidine]
FMdC content (sodium phosphate pH 1, 5° C., 0 days): 100.0 % of initial
FMdC content (sodium phosphate pH 1, 5° C., 1 day): 93.2 % of initial
FMdC content (sodium phosphate pH 1, 5° C., 14 days): 70.0 % of initial
FMdC content (sodium phosphate pH 1, 5° C., 29 days): 47.1 % of initial
FMdC content (sodium phosphate pH 1, 25° C., 0 days): 100.0 % of initial
FMdC content (sodium phosphate pH 1, 25° C., 1 day): 45.7 % of initial
FMdC content (sodium phosphate pH 1, 25° C., 7 days): 4.5 % of initial
FMdC content (sodium phosphate pH 1, 45° C., 0 days): 100.0 % of initial
FMdC content (sodium phosphate pH 1, 45° C., 1 day): 3.9 % of initial
FMdC content (sodium phosphate pH 3, 5° C., 0 days): 100.0 % of initial
FMdC content (sodium phosphate pH 3, 5° C., 1 day): 89.4 % of initial
FMdC content (sodium phosphate pH 3, 5° C., 14 days): 73.3 % of initial
FMdC content (sodium phosphate pH 3, 5° C., 29 days): 51.7 % of initial
FMdC content (sodium phosphate pH 3, 25° C., 0 days): 100.0 % of initial
FMdC content (sodium phosphate pH 3, 25° C., 1 day): 50.5 % of initial
FMdC content (sodium phosphate pH 3, 25° C., 7 days): 4.7 % of initial
FMdC content (sodium phosphate pH 3, 45° C., 0 days): 100.0 % of initial
FMdC content (sodium phosphate pH 3, 45° C., 1 day): 4.4 % of initial
FMdC content (sodium phosphate pH 5, 5° C., 0 days): 100.0 % of initial
FMdC content (sodium phosphate pH 5, 5° C., 7 days): 95.8 % of initial
FMdC content (sodium phosphate pH 5, 5° C., 14 days): 98.2 % of initial
FMdC content (sodium phosphate pH 5, 5° C., 29 days): 93.5 % of initial
FMdC content (sodium phosphate pH 5, 25° C., 0 days): 100.0 % of initial
FMdC content (sodium phosphate pH 5, 25° C., 7 days): 73.0 % of initial
FMdC content (sodium phosphate pH 5, 25° C., 14 days): 56.3 % of initial
FMdC content (sodium phosphate pH 5, 25° C., 29 days): 28.6 % of initial
FMdC content (sodium phosphate pH 5, 45° C., 0 days): 100.0 % of initial
FMdC content (sodium phosphate pH 5, 45° C., 7 days): 2.5 % of initial
FMdC content (sodium phosphate pH 7, 5° C., 0 days): 100.0 % of initial
FMdC content (sodium phosphate pH 7, 5° C., 7 days): 100.8 % of initial
FMdC content (sodium phosphate pH 7, 5° C., 14 days): 100.6 % of initial
FMdC content (sodium phosphate pH 7, 5° C., 29 days): 99.8 % of initial
FMdC content (sodium phosphate pH 7, 25° C., 0 days): 100.0 % of initial
FMdC content (sodium phosphate pH 7, 25° C., 7 days): 100.4 % of initial
FMdC content (sodium phosphate pH 7, 25° C., 14 days): 99.4 % of initial
FMdC content (sodium phosphate pH 7, 25° C., 29 days): 98.8 % of initial
FMdC content (sodium phosphate pH 7, 45° C., 0 days): 100.0 % of initial
FMdC content (sodium phosphate pH 7, 45° C., 7 days): 96.5 % of initial
FMdC content (sodium phosphate pH 7, 45° C., 14 days): 92.0 % of initial
FMdC content (sodium phosphate pH 7, 45° C., 29 days): 82.3 % of initial
FMdC content (sodium phosphate pH 9, 5° C., 0 days): 100.0 % of initial
FMdC content (sodium phosphate pH 9, 5° C., 7 days): 100.4 % of initial
FMdC content (sodium phosphate pH 9, 5° C., 14 days): 100.8 % of initial
FMdC content (sodium phosphate pH 9, 5° C., 29 days): 100.4 % of initial
FMdC content (sodium phosphate pH 9, 25° C., 0 days): 100.0 % of initial
FMdC content (sodium phosphate pH 9, 25° C., 7 days): 100.5 % of initial
FMdC content (sodium phosphate pH 9, 25° C., 14 days): 99.4 % of initial
FMdC content (sodium phosphate pH 9, 25° C., 29 days): 100.4 % of initial
FMdC content (sodium phosphate pH 9, 45° C., 0 days): 100.0 % of initial
FMdC content (sodium phosphate pH 9, 45° C., 7 days): 100.1 % of initial
FMdC content (sodium phosphate pH 9, 45° C., 14 days): 98.7 % of initial
FMdC content (sodium phosphate pH 9, 45° C., 29 days): 96.5 % of initial
stability in words (low pH (pH 1 and 3), even under refrigeration): very unstable
stability in words (pH 9, compared with pH 1 to 7): most stable
